Reference: ChEMBL document CHEMBL4346762, “Design, synthesis and anticancer activity of constrained sphingolipid-phenoxazine/phenothiazine hybrid constructs targeting protein phosphatase 2A” (Bioorg Med Chem Lett, 2019)

What was measured:
[1] = Inhibition of protein phosphatase 2A in mouse FL5.12 cells assessed as reduction in cell viability incubated for 48 hrs by propidium iodide staining based flow cytometric analysis; settings: FL5.12, 48 h
[2] = system: FL5.12; assay: Induction of vacuolation in mouse FL5.12 cells assessed as vacuolation score at 10 uM preincubated with PP2A inhibitor calyculin A for 60 mins followed by compound addition and measured after 2 hrs by fluorescence microscopic method; format: functional
[3] = system: FL5.12; assay: (§1) Inhibition of protein phosphatase 2A in mouse FL5.12 cells assessed as induction of surface nutrient transporter loss by measuring downregulation of CD98 expression level at 10 uM preincubated with PP2A inhibitor calyculin A for 60 mins followed by compound addition and measured after 2 hrs by flow cytometric analysis relative to control; format: cell-based; set-up: scale not given: the % may be the effect or the level left
[4] = system: FL5.12; assay: as §1, with “2.5” for “10”; format: cell-based; set-up: scale not given: the % may be the effect or the level left
[5] = system: FL5.12; assay: Induction of vacuolation in mouse FL5.12 cells assessed as vacuolation score at 2.5 uM preincubated with PP2A inhibitor calyculin A for 60 mins followed by compound addition and measured after 2 hrs by fluorescence microscopic method; format: functional
[6] = organism: Mus musculus; assay: Ratio of IC50 for SH-BC-893 to IC50 for test compound for inhibition of protein phosphatase 2A in mouse FL5.12 cells assessed as reduction in cell viability incubated for 48 hrs by propidium iodide staining based flow cytometric analysis
[7] = system: FL5.12; assay: as §1, with “40” for “10”; format: cell-based; set-up: scale not given: the % may be the effect or the level left
[8] = system: FL5.12; assay: Induction of vacuolation in mouse FL5.12 cells assessed as vacuolation score at 40 uM preincubated with PP2A inhibitor calyculin A for 60 mins followed by compound addition and measured after 2 hrs by fluorescence microscopic method; format: functional

In the case of CCCCCCCCc1ccc([C@H]2CCN[C@@H]2CO)cc1.Cl, the IC50 [1] is reported as 1.8 µM, the Activity [2] is reported as 60 and the Activity [3] is reported as 69%. It also gave an Activity [4] of 32% and an Activity [5] of 46.
In the case of CCCCCCCCc1ccc([C@H]2CCN[C@@H]2COCCCN2c3ccccc3Oc3ccccc32)cc1.Cl, the IC50 [1] is reported as 4.6 µM, the Activity [2] is reported as 23 and the Activity [3] is reported as 27%. It also gave an Activity [4] of 4%, an Activity [5] of 2 and a Ratio IC50 [6] of 2 to 3.
Compound CCCCCCCCc1ccc([C@H]2CCN[C@@H]2COCCCCN2c3ccccc3Oc3ccccc32)cc1.Cl has an IC50 [1] of 5.8 µM, an Activity [2] of 15 and an Activity [3] of 15%. The Activity [4] was 5%, the Activity [5] was 7 and the Ratio IC50 [6] was 2 to 3.
In the case of CCCCCCCCc1ccc([C@H]2CCN[C@@H]2COCCCCc2cccnc2)cc1.Cl, the IC50 [1] is reported as 2.1 µM, the Activity [2] is reported as 11 and the Activity [3] is reported as 64%. It also gave an Activity [4] of 40% and an Activity [5] of 12.
Work on O=S(=O)(N[C@@H]1CCC[C@H](N2c3ccccc3Oc3ccccc32)[C@H]1O)c1ccc(OC(F)(F)F)cc1 yielded an IC50 [1] of 15.2 µM, an Activity [7] of 31% and an Activity [2] of 0. For the same compound, the Activity [3] was 7% and the Activity [8] was 11.
CCCCCCCCc1ccc([C@H]2CCN[C@@H]2COCCCC(O)c2cccnc2)cc1.Cl (some centres not stated) gave an IC50 [1] of 2.4 µM, an Activity [2] of 17 and an Activity [3] of 51%. For the same compound, the Activity [4] was 24% and the Activity [5] was 8.
CCCCCCCCc1ccc([C@H]2CCN[C@@H]2COCCCC(O)c2cnc(OC)nc2OC)cc1.Cl (some centres not stated) gave an IC50 [1] of 2.7 µM, an Activity [2] of 15 and an Activity [3] of 60%. It also gave an Activity [4] of 10% and an Activity [5] of 8.
Work on CCCCCCCCc1ccc([C@H]2CCN[C@@H]2COCCCCCN2c3ccccc3Sc3ccccc32)cc1.Cl yielded an IC50 [1] of 7.5 µM, an Activity [7] of 29% and an Activity [2] of 18. It also gave an Activity [3] of -8% and an Activity [8] of 42.
OCCN1CCN(CCCN2c3ccccc3Sc3ccc(Cl)cc32)CC1 [PERPHENAZINE] showed an IC50 [1] of 4.8 µM, an Activity [2] of 3 and an Activity [3] of 58%. The Activity [4] was 19% and the Activity [5] was 1.
Compound CCCCCCCCc1ccc([C@H]2CCN[C@@H]2COCCCCCN2c3ccccc3Oc3ccccc32)cc1.Cl has an IC50 [1] of 8.6 µM, an Activity [7] of 38% and an Activity [2] of 16. It also gave an Activity [3] of -3% and an Activity [8] of 66.
